melting point	Compound
163 °C	O=C(NCc1ccccc1)Nc1cccc(-c2ccc(C[C@H](NS(=O)(=O)CCCC(F)(F)F)C(=O)O)cc2)c1 [Example 1.161]
202 °C	O=C(Nc1cccc(-c2ccc(C[C@H](NS(=O)(=O)CCCC(F)(F)F)C(=O)O)cc2)c1)NC1CC1 [Example 1.162]
215 °C	COc1ccc2[nH]/c(=N\C(=O)Nc3cccc(-c4ccc(C[C@H](NS(=O)(=O)c5c(C)cc(C)cc5C)C(=O)O)cc4)c3)[nH]c2c1 [Example 1.188]
256 °C (dec.)	Cc1cc(C)c(S(=O)(=O)N[C@@H](Cc2ccc(-c3cccc(NC(=O)/N=c4\[nH]c5ccc(C(=O)O)cc5[nH]4)c3)cc2)C(=O)O)c(C)c1 [Example 1.189]
202 °C	Cc1cc(C)c(S(=O)(=O)N[C@@H](Cc2ccc(-c3cccc(NC(=O)N=c4[nH]c5cc(C)c(C)cc5[nH]4)c3)cc2)C(=O)O)c(C)c1 [Example 1.190]
214 °C	Cc1cc(C)c(S(=O)(=O)NC(Cc2cccc(-c3cccc(NC(=O)NC4CC4)c3)c2)C(=O)O)c(C)c1 (stereo not shown) [Example 1.191]
136 °C	CCCNC(=O)Nc1cccc(-c2cccc(CC(NS(=O)(=O)c3c(C)cc(C)cc3C)C(=O)O)c2)c1 (stereo not shown) [Example 1.192]
118 °C	Cc1cc(C)c(S(=O)(=O)NC(Cc2cccc(-c3cccc(NC(=O)NCc4ccccn4)c3)c2)C(=O)O)c(C)c1 (stereo not shown) [Example 1.193]
207 °C	Cc1cc(C)c(S(=O)(=O)NC(Cc2cccc(-c3cccc(NC(=O)Nc4ccncc4)c3)c2)C(=O)O)c(C)c1 (stereo not shown) [Example 1.194]
220 °C	Cc1cc(C)c(S(=O)(=O)N[C@@H](Cc2ccc(-c3cccc(NC(=O)Nc4nc5cc(Cl)ccc5o4)c3)cc2)C(=O)O)c(C)c1 [Example 1.195]
213 °C	Cc1cc(C)c(S(=O)(=O)N[C@@H](Cc2ccc(-c3cccc(NC(=O)Nc4nc5ccc(C)cc5o4)c3)cc2)C(=O)O)c(C)c1 [Example 1.196]
198 °C	Cc1cc(C)c(S(=O)(=O)N[C@@H](Cc2ccc(-c3cccc(NC(=O)Nc4nc5ccccc5s4)c3)cc2)C(=O)O)c(C)c1 [Example 1.197]
212 °C	Cc1cc(C)c(S(=O)(=O)N[C@@H](Cc2ccc(-c3cccc(NC(=O)Nc4nccs4)c3)cc2)C(=O)O)c(C)c1 [Example 1.198]
220 °C	Cc1cc(C)c(S(=O)(=O)N[C@@H](Cc2ccc(-c3cccc(NC(=O)Nc4nc5ccc(C)cc5s4)c3)cc2)C(=O)O)c(C)c1 [Example 1.199]
225 °C	COc1ccc2nc(NC(=O)Nc3cccc(-c4ccc(C[C@H](NS(=O)(=O)c5c(C)cc(C)cc5C)C(=O)O)cc4)c3)sc2c1 [Example 1.200]
188 °C	Cc1cc(C)c(S(=O)(=O)NC(Cc2cccc(-c3ccc(NC(=O)Nc4ccncc4)cc3)c2)C(=O)O)c(C)c1 (stereo not shown) [Example 1.201]
193 °C	Cc1cc(C)c(S(=O)(=O)NC(Cc2cccc(-c3ccc(NC(=O)N=c4[nH]c5ccccc5[nH]4)cc3)c2)C(=O)O)c(C)c1 (stereo not shown) [Example 1.202]
119 °C	CCCNC(=O)Nc1ccc(-c2cccc(CC(NS(=O)(=O)c3c(C)cc(C)cc3C)C(=O)O)c2)cc1 (stereo not shown) [Example 1.203]
202 °C	Cc1cc(C)c(S(=O)(=O)N[C@@H](Cc2ccc(-c3cccc(NC(=O)Nc4nncs4)c3)cc2)C(=O)O)c(C)c1 [Example 1.204]
289 °C	Cc1cc(C)c(S(=O)(=O)N[C@@H](Cc2ccc(-c3cccc(N)c3)cc2)C(=O)O)c(C)c1 [Example 1.205]
124 °C	Cc1cc(C)c(S(=O)(=O)N[C@@H](Cc2ccc(-c3cccc(NC(=O)NCC(F)(F)F)c3)cc2)C(=O)O)c(C)c1 [Example 1.206]

melting point	Compound
138 °C	Cc1cc(C)c(S(=O)(=O)N[C@@H](Cc2ccc(-c3cccc(NC(=O)NCCSC(F)(F)F)c3)cc2)C(=O)O)c(C)c1 [Example 1.207]
189 °C	Cc1cc(C)c(S(=O)(=O)N[C@@H](Cc2ccc(-c3cccc(NC(=O)Nc4cc(C)on4)c3)cc2)C(=O)O)c(C)c1 [Example 1.208]
180 °C	Cc1cc(C)c(S(=O)(=O)N[C@@H](Cc2ccc(-c3cccc(NC(=O)Nc4cc(C(C)(C)C)on4)c3)cc2)C(=O)O)c(C)c1 [Example 1.209]
207 °C	Cc1cc(C)c(S(=O)(=O)N[C@@H](Cc2ccc(-c3cccc(NC(=O)N=c4[nH]c5ccccc5[nH]4)c3)cc2)C(=O)O)c(C)c1 [Example 1.210]
126 °C	Cc1cc(C)c(S(=O)(=O)N[C@@H](Cc2ccc(-c3cccc(NC(=O)NCC(F)(F)C(F)(F)F)c3)cc2)C(=O)O)c(C)c1 [Example 1.211]
154 °C	Cc1cc(C)c(S(=O)(=O)N[C@@H](Cc2ccc(-c3cccc(NC(=O)NCc4ccc(C(F)(F)F)cc4)c3)cc2)C(=O)O)c(C)c1 [Example 1.212]
202 °C	CC1(C)C2CC[C@@]1(CS(=O)(=O)N[C@@H](Cc1ccc(-c3ccc(NC(=O)NCc4ccccn4)cc3)cc1)C(=O)O)C(=O)C2 [Example 1.213]
207 °C	CC1(C)C2CC[C@@]1(CS(=O)(=O)N[C@@H](Cc1ccc(-c3ccc(NC(=O)Nc4ccncc4)cc3)cc1)C(=O)O)C(=O)C2 [Example 1.214]
222 °C	CC1(C)C2CC[C@@]1(CS(=O)(=O)N[C@@H](Cc1ccc(-c3ccc(NC(=O)N=c4[nH]c5ccccc5[nH]4)cc3)cc1)C(=O)O)C(=O)C2 [Example 1.215]
172 °C	O=C(O)CNS(=O)(=O)c1cccc(-c2cccc(NC(=O)Nc3nc4ccccc4[nH]3)c2)c1 [Example 4.38]
144 °C	O=C(O)CC(NS(=O)(=O)c1cccc(-c2cccc(NC(=O)NC3CC3)c2)c1)c1cccnc1 (stereo not shown) [Example 4.39]
176 °C	O=C(O)CC(NS(=O)(=O)c1cccc(-c2cccc(NC(=O)NCc3ccccn3)c2)c1)c1cccnc1 (stereo not shown) [Example 4.40]
170 °C	O=C(O)CC(NS(=O)(=O)c1cccc(-c2cccc(NC(=O)Nc3nc4ccccc4[nH]3)c2)c1)c1cccnc1 (stereo not shown) [Example 4.41]
190 °C	CCCCNC(=O)Nc1cccc(-c2ccc(OC)c(S(=O)(=O)NC(CC(=O)O)c3ccccc3)c2)c1 (stereo not shown) [Example 4.63]
137 °C	COc1ccc(-c2ccc(NC(=O)NCCc3ccccn3)cc2)cc1S(=O)(=O)NC(CC(=O)O)c1ccccc1 (stereo not shown) [Example 4.64]
125 °C	CCCCNC(=O)Nc1ccc(-c2ccc(OC)c(S(=O)(=O)NC(CC(=O)O)c3ccccc3)c2)cc1 (stereo not shown) [Example 4.65]
145 °C	COc1ccc(-c2ccc(NC(=O)NCc3ccncc3)cc2)cc1S(=O)(=O)NC(CC(=O)O)c1ccccc1 (stereo not shown) [Example 4.66]
161 °C	COc1ccc(-c2ccc(NC(=O)NCc3cccnc3)cc2)cc1S(=O)(=O)NC(CC(=O)O)c1ccccc1 (stereo not shown) [Example 4.67]
115 °C	COc1ccc(-c2ccc(NC(=O)NC(C)C)cc2)cc1S(=O)(=O)NC(CC(=O)O)c1ccccc1 (stereo not shown) [Example 4.68]
158 °C	COc1ccc(-c2ccc(NC(=O)NCc3ccccn3)cc2)cc1S(=O)(=O)NC(CC(=O)O)c1ccccc1 (stereo not shown) [Example 4.69]
150 °C	COc1ccc(-c2ccc(NC(=O)NCc3ccccc3)cc2)cc1S(=O)(=O)NC(CC(=O)O)c1ccccc1 (stereo not shown) [Example 4.70]

melting point	Compound
134 °C	CCNC(=O)Nc1ccc(-c2ccc(OC)c(S(=O)(=O)NC(CC(=O)O)c3ccccc3)c2)cc1 (stereo not shown) [Example 4.71]
126 °C	COc1ccc(-c2ccc(NC(=O)NCC(C)C)cc2)cc1S(=O)(=O)NC(CC(=O)O)c1ccccc1 (stereo not shown) [Example 4.72]
> 250 °C	CCNC(=O)Nc1cccc(-c2ccc(OC)c(S(=O)(=O)NC(CC(=O)O)c3ccccc3)c2)c1 (stereo not shown) [Example 4.73]
209 °C	COc1ccc(-c2ccc(NC(=O)N=c3[nH]c4ccccc4[nH]3)cc2)cc1S(=O)(=O)NC(CC(=O)O)c1ccccc1 (stereo not shown) [Example 4.74]
188 °C	COc1ccc(-c2ccc(NC(=O)Nc3cccnc3)cc2)cc1S(=O)(=O)NC(CC(=O)O)c1ccccc1 (stereo not shown) [Example 4.75]
234 °C	COc1ccc(-c2ccc(NC(=O)NC3CC3)cc2)cc1S(=O)(=O)NC(CC(=O)O)c1ccccc1 (stereo not shown) [Example 4.76]
128 °C	COc1ccc(-c2cccc(NC(=O)NC3CC3)c2)cc1S(=O)(=O)NCC(=O)O [Example 4.77]
218 °C	C[C@H](NS(=O)(=O)c1cccc(-c2cccc(NC(=O)N=c3[nH]c4ccccc4[nH]3)c2)c1)C(=O)O [Example 4.80]
126 °C	CCCNC(=O)Nc1cccc(-c2cccc(S(=O)(=O)N[C@H](C)C(=O)O)c2)c1 [Example 4.81]
149 °C	C[C@@H](NS(=O)(=O)c1cccc(-c2cccc(NC(=O)NCc3ccccn3)c2)c1)C(=O)O [Example 4.82]
158 °C	C[C@@H](NS(=O)(=O)c1cccc(-c2cccc(NC(=O)N=c3[nH]c4ccccc4[nH]3)c2)c1)C(=O)O [Example 4.83]
169 °C	C[C@@H](NS(=O)(=O)c1cccc(-c2cccc(NC(=O)Nc3ccncc3)c2)c1)C(=O)O [Example 4.84]
147 °C	COc1ccc(-c2cccc(NC(=O)NCC(F)(F)C(F)(F)F)c2)cc1S(=O)(=O)NC(CC(=O)O)c1ccccc1 (stereo not shown) [Example 4.85]
209 °C	COc1ccc(-c2cccc(NC(=O)N=c3[nH]cc[nH]3)c2)cc1S(=O)(=O)NC(CC(=O)O)c1ccccc1 (stereo not shown) [Example 4.86]
122 °C (dec.)	CCCCNC(=O)Nc1cccc(-c2ccc(OC)c(S(=O)(=O)N[C@H](CC(=O)O)c3ccccc3)c2)c1 [Example 4.87]
151 °C (dec.)	COc1ccc(-c2cccc(NC(=O)N=c3[nH]c4ccccc4[nH]3)c2)cc1S(=O)(=O)N[C@H](CC(=O)O)c1ccccc1 [Example 4.88]
224 °C (dec.)	COc1ccc(-c2cccc(NC(=O)NCc3cccnc3)c2)cc1S(=O)(=O)N[C@H](CC(=O)O)c1ccccc1 [Example 4.89]
111 °C (dec.)	COc1ccc(-c2cccc(NC(=O)NCc3ccc(C(F)(F)F)cc3)c2)cc1S(=O)(=O)N[C@H](CC(=O)O)c1ccccc1 [Example 4.90]
189 °C	O=C(O)C[C@@H](NS(=O)(=O)c1cccc(-c2cccc(NC(=O)N=c3[nH]c4ccccc4[nH]3)c2)c1)c1ccccc1 [Example 4.91]

— patent publication US7094911B2, “Biphenyl and biphenyl-analogous compounds as integrin antagonists” (Bayer Aktiengesellschaft, priority 1998, dated 2006)
